According to ChEMBL document CHEMBL1147038, “Structural basis for the specific inhibition of protein kinase G, a virulence factor of Mycobacterium tuberculosis” (Proc Natl Acad Sci U S A, 2007):
The source made the active and inactive calls. No cut-off for these calls is given here.

Tests used:
[1] = test system: Mycobacterium tuberculosis; assay: Inhibition of Mycobacterium tuberculosis PKnGdeltaN mutant at 63 uM by autoradiography
[2] = test system: Mycobacterium tuberculosis; assay: Inhibition of Mycobacterium tuberculosis PKnG-I87S/A92S mutant at 25 uM by autoradiography

Structure (SMILES): NC(=O)c1c(NC(=O)C2CC2)sc2c1CCCC2
- Activity [1]: Active
- inhibition [2]: > 50%
